Key:
Format in all cases: ADME, organism-based
[1] = Plasma clearance in Sprague-Dawley rat
[2] = Half life in Sprague-Dawley rat; conditions: in vivo
[3] = Volume of distribution at steady state in Sprague-Dawley rat; conditions: in vivo, read-out: Vdss
[4] = Oral bioavailability in Sprague-Dawley rat; conditions: in vivo

clearance [1] [mL/min/kg]	half-life [2] [h]	Vd [3] [L/kg]	bioavailability [4] [%]	SMILES
1.6	18	2.4	> 10	CN[C@H](C)c1ccc(N2CC[C@H](NS(=O)(=O)c3ccc4cc(Cl)ccc4c3)C2=O)c(F)c1
8	2.6	1.3	43	C[C@H](c1ccc(N2CC[C@H](NS(=O)(=O)c3ccc4cc(Cl)ccc4c3)C2=O)c(F)c1)N(C)C
3.1	15	3.3	> 15	CN[C@@H](C)c1ccc(N2CC[C@H](NS(=O)(=O)c3ccc4cc(Cl)ccc4c3)C2=O)c(F)c1
13	2.1	1.8	81	C[C@@H](c1ccc(N2CC[C@H](NS(=O)(=O)c3ccc4cc(Cl)ccc4c3)C2=O)c(F)c1)N(C)C
7.5	1.3	0.66	54	C[C@H](c1ccc(N2CC[C@H](NS(=O)(=O)/C=C/c3ccc(Cl)s3)C2=O)c(F)c1)N(C)C
4.3	1.6	0.53	23	C[C@@H](c1ccc(N2CC[C@H](NS(=O)(=O)/C=C/c3ccc(Cl)s3)C2=O)c(F)c1)N(C)C
2.1	3.1	0.52	10	CC(c1ccc(N2CC[C@H](NS(=O)(=O)c3cc4ccc(Cl)cc4s3)C2=O)c(F)c1)N(C)C (stereo partly drawn)

Source: ChEMBL document CHEMBL1153243, “Structure and property based design of factor Xa inhibitors: pyrrolidin-2-ones with monoaryl P4 motifs” (Bioorg Med Chem Lett, 2010)
